Results: US9717752B2, “Uses of antagonists of hyaluronan signaling” (The United States of America, as represented by the …, priority 2012, dated 2017)
Entries after “also recorded” stand apart in the source; their conditions may differ.

Tests used:
mice exposed to sHA = experiment: In vivo model of airway contraction (AHR) after sHA instillation, airway resistance to methacholine; details: 50 μl of 1-2 mg/ml by oropharyngeal aspiration, methacholine challenge 2 hours after sHA, compared to sHA with saline
Protocol: (§1) Measurements of respiratory mechanics were made by the forced oscillation technique. Response to aerosolized methacholine (0, 10 mg/ml, 25 mg/ml, and 100 mg/ml) was determined by resistance measurements every 30 seconds for 5 minutes, ensuring the parameters calculated had peaked. The resistance measurements were then averaged at each dose and graphed (RT, measured in cm H2O/ml/s) along with the initial baseline measurement.
(§2) In the following studies to evaluate the effect of heparosan, mice were exposed to one of several agents: sHA (50 μl of a 1 mg/ml sHA solution in PBS—sonicated Healon, AMO Inc., Santa Ana, Calif.); 1 ppm ozone (O3) for 4 hours; or inhaled OVA (sensitization with i.p. injection of 10 μg OVA (Sigma, St. Louis, Mo.), adsorbed to 2 mg of alum adjuvant (Pierce Biotechnology, Inc., Rockford, Ill.) diluted in saline on days 0 and 7, 60 minutes inhaled exposure to 1% OVA aerosol on days 14 and 15). Mice were phenotyped for AHR at typical time points for each of these exposures: 2 hours after sHA instillation; 24 hours after ozone exposure; and 48 hours after second OVA exposure. Thirty minutes prior to phenotyping, mice received appropriate treatment (saline, heparosan or heparin) by oropharyngeal aspiration. Mice received 50 μl of a 1-2 mg/ml solution of heparosan or heparin (or 50 μl of saline as a control). […]

[1] = test system: mice sensitized to ovalbumin and exposed to inhaled ovalbumin; experiment: Murine model of airway contraction in allergic asthma (ovalbumin), airway resistance; assay type: in vivo; details: given 48 hours after OVA exposure, 50 μl of 1-2 mg/ml by oropharyngeal aspiration, compared to saline placebo
Protocol: as §1, §2

mice exposed to ozone = experiment: Murine model of airway contraction after ozone exposure, airway resistance; assay type: in vivo; details: 1 ppm ozone for 4 hours, given 24 hours after exposure, 50 μl of 1-2 mg/ml by oropharyngeal aspiration, compared to saline placebo
Protocol: as §1, §2

[2] = test system: human airway smooth muscle cells (ASMC); experiment: Gel contraction: human airway smooth muscle cells in 3-dimensional collagen-hyaluronan gels; assay type: cell-based
Protocol: The in vitro effect of heparosan on human airway smooth muscle cells (ASMC) was tested in 3-dimensional, collagen-hyaluronan gels. Collagen-only gels were used as controls. Human ASMC (6×10^5 cells/ml) in basal media were seeded into the gel solution and incubated up to 36 hours at 37° C. in 5% CO2. Gels were scanned at varying time intervals to monitor gel contraction. After 24 hours, the gels were fixed with 4% paraformaldehyde and stained with phalloidin and DAPI. In some experiments, the ROCK inhibitor Y-27632 was added to the gel. Change in gel area was measured by NIH Image J software.

mouse tracheal rings = experiment: Tracheal ring assay, in vitro model of mouse airway smooth muscle cell contractility; assay type: cell-based; details: for effect on sHA-exaggerated contractile response of tracheal rings to carbachol: 1 mg/mL sHA+0.5 mg/mL oHA
Protocol: Airway smooth muscle reactivity was assessed in temperature-controlled (37° C.) organ baths containing Krebs-Henseleit buffer solution of the following composition: 118 mM NaCl, 4.7 mM KCl, 2.5 mM CaCl2, 1.2 mM MgSO4, 25 mM NaHCO3, 1.2 mM KH2PO4, and 11.1 mM glucose, continuously bubbled with 5% CO2 and 95% O2. Tracheal segments were mounted in organ baths between two metal hooks and connected to a K30 force displacement transducer under approximately 5-mN resting tension. Isometric contractile responses were recorded after dosing with carbachol (a bronchial constrictor) and isoproterenol (a bronchial dilator).

[3] = test system: mice exposed to inhaled endotoxin (LPS); experiment: Murine model of inflammatory asthma (inhaled endotoxin/LPS), airway resistance; assay type: in vivo; details: for airway resistance after inhaled endotoxin (LPS) exposure: LPS+oHA, 50 μl of 1.5 mg/ml oHA by oropharyngeal aspiration after exposure
Protocol: as §1
In the following studies to evaluate the effect of oHA, mice were exposed to sHA (50 μl of a 1 mg/ml sHA solution in PBS—sonicated Healon, AMO Inc., Santa Ana, Calif.) or inhaled endotoxin (5 μg/m^3) over 2.5 hours. Mice were phenotyped for AHR at typical time points for each of these exposures: 2 hours after sHA instillation; or 4 hours after endotoxin exposure. Thirty minutes prior to phenotyping, mice received appropriate treatment (saline, vehicle or oHA) by oropharyngeal aspiration. Mice were treated with 50 μl of 1.5 mg/ml oHA. Phenotyping was with invasive airway pressure measurements (FlexiVent™).

Row | Substance | airway resistance after sHA exposure (mice exposed to sHA) | airway resistance in ovalbumin allergic asthma model [1] | airway resistance after ozone exposure (mice exposed to ozone) | effect on sHA-induced contraction of gel containing human ASMC ([2]; collagen-hyaluronan gel, change in gel area) | effect on sHA-exaggerated contractile response of tracheal rings to carbachol (mouse tracheal rings) | airway resistance after inhaled endotoxin (LPS) exposure [3] | airway contractility without LPS exposure ([3]; saline+oHA (oHA alone)) | contraction of gel containing human ASMC ([2]; sHA alone, versus collagen-only control gels) | contractile response of tracheal rings to carbachol (mouse tracheal rings; 1 mg/mL sHA versus 0 mg/mL sHA)
1 | heparin [reference compound] | increased the development of airway resistance | increased the development of airway resistance | had no effect on airway resistance beyond saline | – | – | – | – | – | –
2 | heparosan | decreased the development of airway resistance | led to decreased airway resistance compared to saline placebo treatment | led to decreased airway resistance compared to saline placebo treatment | inhibited this action, and was indistinguishable from control cells | ameliorates tracheal ring contractility | inhibits inflammatory AHR | – | – | –
3 | hyaluronan oligosaccharide [oHA] | – | – | – | – | inhibited this action | led to decreased airway resistance | had no effect on airway contractility | – | –
4 | short fragment hyaluronan [sHA, reference compound] | – | – | – | – | – | – | – | led to rapid contraction of a gel containing human ASMC; also recorded: led to rapid contraction of a gel containing haSMC | led to an exaggerated contractile response of mouse tracheal rings to the constrictor substance carbachol
